Reference: patent US11326126B2, “High performing, high impact bloom accord” (International Flavors & Fragrances Inc., priority 2016, dated 2022)

Legend:
Assay in all cases: Antibacterial activity
Type in all cases: cell-based
e. hirae = conditions: against e. hirae
Description: (§1) The fragrance accords can contain antibacterial ingredients described above. See U.S. Pat. No. 6,495,512 for a list of suitable antibacterial ingredients.

s. aureos = conditions: against s. aureos
Description: as §1

e. coli = conditions: against e. coli
Description: as §1

Measured: antibacterial activity

COc1ccc(C)cc1 [1-methoxy-4-methylbenzene]
high antibacterial activity: all assays above

C=CC(C)(O)CCC=C(C)C (stereo not drawn) [3,7-dimethylocta-1,6-dien-3-ol]
high antibacterial activity: all assays above
